The results in this text go back to patent US8143419B2, “Trisubstituted 1,2,4-triazoles” (Janssen Pharmaceutica N. V., priority 2006, dated 2012).

One data set deals with T1, hα7-wt nAChR (Homo sapiens, UniProt P36544).
T1 construct: expressed in transfected cells
Description: Ca2+ flux imaging (FLIPR) (Protocol A), PAM activity with choline as agonist. Particulars: for EC50: "<5" = no top plateau at maximal concentration; for Emax: read-out: % efficacy. Type of data set: cell-based. The text has this:
Stable expression in mammalian cells in general and rat GH4C1 cells in particular, of cDNA clones encoding the human α7 wild-type sequence (hα7-wt nAChR) and in which the coding region is placed downstream of a promoter results in the appearance of functional α7 nAChRs on the surface of the mammalian cells. This technique has provided a powerful means of assessing the function of α7 wild-type protein. Given the fact that the cation permeability of the α7 nicotinic receptor preferentially favours calcium, fluorescent imaging of Ca^2+ flux through the hα7-wt nAChR stably expressed in the GH4C1 cell line was used as a first means of assaying modulator activity of the compounds of the present invention.
• Hanks buffered saline solution (HBSS, Invitrogen, Belgium), supplemented with 10 mM HEPES (Invitrogen, Belgium), CaCl2 to a final concentration of 5 mM, 0.1% Bovine serum albumin (Sigma-Aldrich NV, Belgium), 2.5 mM probenecid (Sigma-Aldrich NV, Belgium). b) Calcium-Sensitive Dye—Fluo-4AM • Fluo-4AM (Molecular Probes, USA) was dissolved in DMSO containing 10% Pluronic acid (Molecular Probes, USA) to give a stock solution which was aliquoted and stored at −20° C. until later use. On the day of the experiment Fluo-4AM stock was defrosted and diluted in DMEM/F12 (Invitrogen, Belgium) to give a final concentration of 4 μM. c) 96-Well Plates • BD Biocoat poly-D-lysine 96-well black/clear plates (BD Biosciences, Belgium) d) Calcium Flux Measurement • A Fluorimetric Imaging Plate Reader (FLIPR, Molecular Devices Corporation, Sunnyvale, USA) was used to measure intracellular free-calcium flux signals Method
Monolayers of hα7-wt nAChR-expressing cells were grown in multi-well plates, in particular black-sided, transparent bottomed 96 well plates coated with poly-D-lysine for 24 hours prior to loading with a fluorescent calcium indicator, in a particular embodiment loading with fluo-3 or fluo-4AM for up to 90 minutes, in an even more particular embodiment loading with fluo-4AM for up to 90 minutes, and in a preferred embodiment loading with fluo-4AM for up to 60 minutes.
PAM activity was detected in real time by applying the compounds to be tested to the loaded cells along with a α7 nicotinic receptor agonist during constant monitoring of cellular fluorescence in a FLIPR. Compounds giving peak fluorescent responses greater than the response due to agonist alone, were considered to be α7 nAChR PAM's. In a particular embodiment, the α7 nicotinic receptor agonist was choline, a more particular embodiment choline applied at a sub-maximal concentration of 100 μM. In a further setting of the present invention the compounds to be tested were applied prior to the α7 nicotinic receptor agonist, in a particular embodiment up to 20 minutes prior to the agonist, a more particular embodiment up to 10 minutes prior to the agonist, and an even more particular embodiment 10 minutes prior to the agonist.
A control response to choline was calculated on each plate from the difference in peak in fluorescence in wells receiving either choline or assay buffer alone. Compounds of the present invention were tested at a concentration range from 0.1 μM to 50 μM. Compounds were considered to have an interesting activity when their efficacy was at least 500% when tested at the concentration where they have a maximal effect, typically between 0.1 μM and 50 μM (the efficacy of 100 μM choline was defined as 100% in the absence of a PAM). The compounds also have a potentiating effect on the response to choline when measured by whole-cell patch clamp electrophysiology in GH4C1 cells stably over-expressing the human wild-type α7 receptor.
For orientation: Calcium flux is commonly read through the fluorescence of an indicator in the cells.

T1 sequence (P36544 23-502): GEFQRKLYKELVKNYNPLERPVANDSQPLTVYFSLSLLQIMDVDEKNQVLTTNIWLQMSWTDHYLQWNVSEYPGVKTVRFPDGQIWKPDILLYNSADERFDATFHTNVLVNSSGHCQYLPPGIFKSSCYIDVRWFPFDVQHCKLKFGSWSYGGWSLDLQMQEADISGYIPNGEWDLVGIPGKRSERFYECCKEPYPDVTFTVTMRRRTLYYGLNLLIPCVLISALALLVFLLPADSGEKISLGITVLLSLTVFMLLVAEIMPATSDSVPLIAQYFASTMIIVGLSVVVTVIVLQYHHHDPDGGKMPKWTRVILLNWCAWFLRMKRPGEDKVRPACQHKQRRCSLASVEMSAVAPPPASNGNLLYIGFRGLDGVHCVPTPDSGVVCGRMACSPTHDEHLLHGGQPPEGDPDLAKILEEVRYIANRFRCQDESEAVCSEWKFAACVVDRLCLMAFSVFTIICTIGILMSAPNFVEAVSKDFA

Take `C[C@H](O)Cn1nc(Nc2ccc(F)c(F)c2)nc1-c1ccnc(C2CC2)c1` [Compound 175]: the melting point (in general, the temperature of the solid-liquid transition) amounted to 131.4 °C. Further, on hα7-wt nAChR, the EC50 (commonly the concentration that produces a half-maximal response) is 2.51 µM and the Emax was 904%. Consider `CNC(=O)Cn1nc(Nc2cccc(C(F)(F)F)c2)nc1-c1ccc(Cl)cc1Cl` [Compound 13], for which the melting point was 179.9 to 182.1 °C. Besides, at hα7-wt nAChR, the EC50 was 2 µM. In turn, `NC(=O)Cn1nc(Nc2cccc(C(F)(F)F)c2)nc1-c1ccc(Cl)cc1Cl` [Compound 20] came in with a melting point of 203.6 to 206.4 °C. Further, the concentration giving a half-maximal response (EC50) at hα7-wt nAChR is above 10 µM.

For `OCCn1nc(Nc2cccc(C(F)(F)F)c2)nc1-c1ccnc(Cl)c1` [Compound 7], the EC50 at hα7-wt nAChR was 6.31 µM.

Compound `FCCn1nc(Nc2cc(F)cc(F)c2)nc1-c1ccnc(C2CC2)c1` [Compound 177] came in with a melting point of 150.3 °C. Besides, the EC50 at hα7-wt nAChR is 3.98 µM. The matching figures for `CC(O)Cn1nc(Nc2cccc(OC(F)(F)F)c2)nc1-c1ccc(C2CC2)nc1` (centres unmarked) [Compound 150]: 125.5 °C and 3.98 µM. In the same order, the values of `Cn1nc(Nc2ccccc2)nc1-c1ccc(Cl)cc1Cl` [Compound 18] are 193 to 194 °C and above 10 µM.

Compound `COc1ccc(Cl)c(Nc2nc(-c3ccc4c(c3)OCCO4)n(CCC(=O)N(C)C)n2)c1` [Compound 196] yielded a melting point of 134.7 to 136.7 °C. Besides, at hα7-wt nAChR, the EC50 is 3.16 µM.

The compound `OCCn1nc(Nc2cccc(C(F)(F)F)c2)nc1-c1cnc2c(c1)OCC2` [Compound 78] had a melting point of 173.1 °C. Besides, the EC50 on hα7-wt nAChR was above 10 µM. The matching figures for `OCCn1nc(Nc2cccc(C(F)(F)F)c2)nc1-c1ccnc(N2CCOCC2)c1` [Compound 38]: 167.4 °C and 3.98 µM.

Turning to `CNC(=O)CCn1nc(Nc2cccc(C(F)(F)F)c2)nc1-c1ccncc1` [Compound 11], at hα7-wt nAChR, the EC50 is above 10 µM and the Emax was determined as 938%. Regarding `CN(C)C(=O)Cn1nc(Nc2cccc(C(F)(F)F)c2)nc1-c1ccc2c(c1)OCCO2` [Compound 23], the concentration for a half-maximal effect (EC50) on hα7-wt nAChR is above 10 µM. On to `CN(C)C(=O)CCn1nc(N(C)c2ccc(F)c(C(F)(F)F)c2)nc1-c1ccc2c(c1)OCCO2` [Compound 135], for which the melting point lay within 113.1 to 115.1 °C. The half-maximal effective concentration (EC50) at hα7-wt nAChR was 3.16 µM.

The compound `CNC(=O)Cn1nc(Nc2cc(F)cc(F)c2)nc1-c1ccnc(NC)c1` [Compound 178] gave a melting point of 247 °C. At hα7-wt nAChR, the concentration giving a half-maximal response (EC50) was above 10 µM. As for `FCCn1nc(Nc2cccc(OC(F)(F)F)c2)nc1-c1ccnc(C2CC2)c1` [Compound 152], at hα7-wt nAChR, the EC50 is 3.98 µM. Consider `OCCn1nc(Nc2cccc(C(F)(F)F)c2)nc1-c1cnc2ccoc2c1` [Compound 79], for which the melting point was 158.8 °C. In addition, the EC50 on hα7-wt nAChR was above 10 µM. In turn, `OCCn1nc(Nc2cccc(C(F)(F)F)c2)nc1-c1cnc2ccccc2c1` [Compound 80] returned a melting point of 182 °C. Moreover, the EC50 at hα7-wt nAChR was 3.16 µM.

As to `CN(C)C(=O)CCn1nc(Nc2cccc(C(F)(F)F)c2)nc1-c1ccc2c(c1)OCCO2` [Compound 6], the melting point lay within 195.7 to 196.6 °C. Also, on hα7-wt nAChR, the EC50 is 0.158 µM.

Turning to `C[C@@H](O)Cn1nc(Nc2ccc(F)c(C(F)(F)F)c2)nc1-c1ccc(C2CC2)nc1` [Compound 100], on hα7-wt nAChR, the half-maximal effective concentration (EC50) is 3.98 µM. With `OCCn1nc(Nc2cccc(C(F)(F)F)c2)nc1-c1cccnc1` [Compound 16], the melting point was 158.2 to 159 °C. For the same compound, on hα7-wt nAChR, the concentration for a half-maximal effect (EC50) is 7.94 µM and the Emax stood at 583%. Compound `OCCn1nc(Nc2cccc(C(F)(F)F)c2)nc1-c1ccc2c(c1)OCCO2` [Compound 3] showed a melting point of 188.3 to 190.3 °C. Besides, at hα7-wt nAChR, the EC50 was 3.16 µM. In the case of `COCCn1nc(Nc2cccc(C(F)(F)F)c2)nc1-c1ccncc1` [Compound 52], the melting point was determined as 147.2 °C. On hα7-wt nAChR, the EC50 was 7.94 µM and the Emax amounted to 641%. `CCOC(=O)Cn1nc(Nc2cccc(C(F)(F)F)c2)nc1-c1ccc2c(c1)OCO2` [Compound 81] gave a melting point of 149.2 °C. Moreover, the EC50 at hα7-wt nAChR was above 10 µM.

`CC(=O)NCCCn1nc(Nc2ccc(F)c(C(F)(F)F)c2)nc1-c1ccnc(C)c1` [Compound 27]: the melting point was 171.2 °C. Further, on hα7-wt nAChR, the EC50 is above 10 µM.
